Results from patent publication US20090163453A1, “Prevention and Treatment of Gastrointestinal and Bladder Disorders Associated with Chemotherapy or Radiation Therapy Using Active Vitamin D Compounds” (Novacea Inc., priority 2005, published 2009).

What was measured:
[1] = Solubility study of calcitriol in each formulation (light microscope); type: physicochemical; conditions: each formulation of Table 3; heated to 50° C., cooled to room temperature; highest concentration tested
Protocol: To further assess the formulations of calcitriol, a solubility study was conducted to evaluate the amount of calcitriol soluble in each formulation. Calcitriol concentrations from 0.1 to 0.6 μg calcitriol/mg formulation were prepared by heating the formulations to 50° C. followed by addition of the appropriate mass of calcitriol. The formulations were then allowed to cool to room temperature and the presence of undissolved calcitriol was determined by a light microscope with and without polarizing light. For each formulation, calcitriol was soluble at the highest concentration tested, 0.6 μg calcitriol/mg formulation.

[2] = system: patients with androgen independent prostate cancer; conditions: human, in vivo
Protocol: Two hundred fifty patients with androgen independent prostate cancer were enrolled in a randomized placebo controlled trial at 48 centers in the United States and Canada.
The same Taxotere® dose of 36 mg/m^2 body surface area was administered to the patients receiving Taxotere® and placebo or Taxotere® in combination with calcitriol.
Hospitalization for dehydration was more common in those patients receiving Taxotere® and placebo.

[3] = system: patients; conditions: administered doses with cisplatin infusions; cited from earlier work

Row | SMILES | Calcitriol soluble in formulation [1] | GI disorders versus Taxotere and placebo [2] | Emesis, percent of patients [3] | Hypotension, percent of patients [3]
1 | C=C1/C(=C\C=C2/CCC[C@]3(C)[C@@H]([C@H](C)CCCC(C)(C)O)CC[C@@H]23)C[C@@H](O)C[C@@H]1O [Calcitriol, 1α,25-hydroxyvitamin D3] | ≥ 0.6 μg calcitriol/mg formulation | fewer GI disorders |  | 
2 | NCCCNCCSP(=O)(O)O [WR 2721, S-2-(3-aminopropylamino)ethylphosphorothioic acid] |  |  | 48 % of patients | 7 % of patients
